Test results as given in publication PMC10873978, “Novel tetrahydroisoquinolines as DHFR and CDK2 inhibitors: synthesis, characterization, anticancer activity and antioxidant properties” (BMC Chemistry, 2024).
“Also recorded” adds a separate entry of the source.

Key:
[1] = system: MCF7 cell line; assay: In vitro cytotoxic activity, MTT method, MCF7; assay type: cell-based, human; conditions: for IC50: Homo sapiens, MCF7, MCF7 cell line, MTT
Description: (§1) Cell lines: The in vitro human breast cancerous cell line (MCF7), lung cancerous cell lines (A549) and normal cell lines were purchased from Serum and Vaccine formulation in Cairo-Egypt.
(§2) In vitro cytotoxic activity of all synthesized compounds against two human breast cell line (MCF7) and lung cell lines (A549) was evaluated according to the MTT method. Firstly, Growth the cell line medium in 96 well tissue culture plate was injected with 10^5 cells/mL (100 uL/plate well) of the cell line and incubated at 37 °C for 24 h to develop a monolayer sheet then the formed growth medium was poured from 96 well microtiter plates after the confluent sheet of cells. […] Secondly, add 0.1 mL of each concentration tetrahydroisoquinoline sample to each plate. The plates were incubated at 37 °C. Thirdly MTT solution (5 mg/mL in PBS) is prepared. Add 20 µL of MTT solution to each well plates. And shaking in 150 rpm for 5 min, to mix the MTT into the media. Then incubate at (37 °C, 5% CO2) for 1–5 h. Finally read the optical density at 560 nm and subtract background at 620 nm.
(§3) In this work, doxorubicin was used as a positive control drug for comparison with the synthesized compounds under the same experimental conditions.

[2] = system: A549 cell line; assay: In vitro cytotoxic activity, MTT method, A549; conditions: for IC50: Homo sapiens, read-out: IC50 ± SD
Description: as §1, §2, §3

[3] = DPPH scavenging antioxidant activity
Description: The antioxidant activity of ten compounds was determined using DPPH [32–34]. A solution 1: prepared by dissolving DPPH (0.002 g) in ethanol (50 mL etnanol). Solution 2: prepared by dissolving different weights 0.05, 0.01 g of each sample in 1 mL of DMSO then take 10 µL of each sample solution with 1 mL ethanol. Then mix 1 mL of solution 1 with 1 mL of solution 2 then vortex the resulting mixture in the dark for about 30 min. The absorbance of the mixture was measured by spectrophotometer at λmax = 517 nm against blank 1 mL absolute ethanol and compared to the ascorbic acid (Vitamin C).
Ten newly synthesized compounds were studied as in vitro antioxidants by measuring of their DPPH scavenging activity which is represented as a percentage % [32]^. Results are represented by mean ± SD of three replicates. […] The higher dose concentration of 0.05 μg/mL represents higher antioxidant activity. […] The high antioxidant activity is referred to the presence of C=O, NH2, and OH groups like ascorbic acid which can be easily oxidized and reduced and can be used as antioxidant drugs. (Fig. 8 and Table 9).

## CC(=O)C1C(c2ccc(N(C)C)cc2)c2c(C)nc(SCC(=O)Nc3ccc(Cl)cc3)c(C#N)c2CC1(C)O (stereo not drawn) [Compound 7c, 2-[(7-Acetyl-4-cyano-1,6-dimethyl-6-hydroxy-8-(4-N,N-dimethylamino-phenyl)-,5,6,7,8-tetrahydroisoquinolin-3-yl)thio]-N-(4-chlorophenyl)acetamide]
[1]
  IC50: 1491 ± 4 nM
[1]; MCF7, 0.0487 µMol
  Toxicity %: -0.6776%
  Viability %: 100.4%
[1]; MCF7, 0.0975 µMol
  Toxicity %: -0.5335%
  Viability %: 100.6%
[1]; MCF7, 0.195 µMol
  Viability %: 99.47%
[1]; MCF7, 0.391 µMol
  Viability %: 100.1634%
[1]; MCF7, 0.781 µMol
  Toxicity %: 8.333%
  Viability %: 91.67%
[1]; MCF7, 1.562 µMol
  Toxicity %: 36.68%
  Viability %: 63.32%
[1]; MCF7, 3.125 µMol
  Toxicity %: 65.48%
  Viability %: 34.52%
[1]; MCF7, 6.25 µMol
  Toxicity %: 86.36%
  Viability %: 13.64%
[1]; MCF7, 12.5 µMol
  Toxicity %: 80.15%
  Viability %: 19.85%
[1]; MCF7, 25 µMol
  Toxicity %: 96.77%
  Viability %: 3.227%
[2]; A549, Conc. 0.04875 µMol
  Toxicity %: 3.457%
  Viability %: 96.54%
[2]; A549, Conc. 0.0975 µMol
  Toxicity %: 4.658%
  Viability %: 95.3422%
[2]; A549, Conc. 0.195 µMol
  Toxicity %: 6.193%
  Viability %: 93.81%
[2]; A549, Conc. 0.391 µMol
  Toxicity %: 33.41%
  Viability %: 66.59%
[2]; A549, Conc. 0.781 µMol
  Toxicity %: 51.48%
  Viability %: 48.52%
[2]; A549, Conc. 1.562 µMol
  Toxicity %: 68.05%
  Viability %: 31.95%
[2]; A549, Conc. 3.125 µMol
  Toxicity %: 77.2%
  Viability %: 22.8%
[2]; A549, Conc. 6.25 µMol
  Toxicity %: 90.57%
  Viability %: 9.428%
[2]; A549, Conc. 12.5 µMol
  Toxicity %: 95.94%
  Viability %: 4.063%
[2]; A549, Conc. 25 µMol
  Toxicity %: 97.44%
  Viability %: 2.564%
[2]
  IC50: 496 ± 3 nM
[3]; 0.01 µg/mL
  DPPH scavenging, inhibition (%): 77.90 ± 6.22%
[3]; 0.05 µg/mL
  DPPH scavenging, inhibition (%): 81.39 ± 4.99%
[3]; DPPH
  antioxidant activity compared with Vitamin C: higher result than Vitamin C; also recorded: higher antioxidant activity than Vitamin C

## CC(=O)C1C(c2ccc(N(C)C)cc2)c2c(C)nc(SCC(=O)Nc3ccc(C)cc3)c(C#N)c2CC1(C)O (stereo not drawn) [Compound 7b, 2-[(7-Acetyl-4-cyano-1,6-dimethyl-6-hydroxy-8-(4-N,N-dimethylamino-phenyl)-5,6,7,8-tetrahydroisoquinolin-3-yl)thio]-N-(4-tolyl)acetamide]
[1]
  IC50: 474 ± 6 nM
[1]; MCF7, 0.0487 µMol
  Toxicity %: 4.569%
  Viability %: 95.4311%
[1]; MCF7, 0.0975 µMol
  Toxicity %: 6.234%
  Viability %: 93.77%
[1]; MCF7, 0.195 µMol
  Toxicity %: 8.333%
  Viability %: 91.67%
[1]; MCF7, 0.391 µMol
  Toxicity %: 39.62%
  Viability %: 60.38%
[1]; MCF7, 0.781 µMol
  Toxicity %: 74.92%
  Viability %: 25.08%
[1]; MCF7, 1.562 µMol
  Toxicity %: 82.39%
  Viability %: 17.61%
[1]; MCF7, 3.125 µMol
  Toxicity %: 86.44%
  Viability %: 13.56%
[1]; MCF7, 6.25 µMol
  Toxicity %: 93.1%
  Viability %: 6.904%
[1]; MCF7, 12.5 µMol
  Toxicity %: 96.61%
  Viability %: 3.391%
[1]; MCF7, 25 µMol
  Toxicity %: 96.57%
  Viability %: 3.431%
[2]; A549, Conc. 0.04875 µMol
  Toxicity %: 0.2467%
  Viability %: 99.7534%
[2]; A549, Conc. 0.0975 µMol
  Toxicity %: 0.3467%
  Viability %: 99.6534%
[2]; A549, Conc. 0.195 µMol
  Toxicity %: 0.5128%
  Viability %: 99.49%
[2]; A549, Conc. 0.391 µMol
  Toxicity %: 14.2%
  Viability %: 85.8%
[2]; A549, Conc. 0.781 µMol
  Toxicity %: 35.82%
  Viability %: 64.18%
[2]; A549, Conc. 1.562 µMol
  Toxicity %: 53.81%
  Viability %: 46.19%
[2]; A549, Conc. 3.125 µMol
  Toxicity %: 72.39%
  Viability %: 27.61%
[2]; A549, Conc. 6.25 µMol
  Toxicity %: 86.39%
  Viability %: 13.61%
[2]; A549, Conc. 12.5 µMol
  Toxicity %: 93.85%
  Viability %: 6.154%
[2]; A549, Conc. 25 µMol
  Toxicity %: 96.41%
  Viability %: 3.59%
[2]
  IC50: 987 ± 2 nM
[3]; 0.01 µg/mL
  DPPH scavenging, inhibition (%): 48.59 ± 0.73%
[3]; 0.05 µg/mL
  DPPH scavenging, inhibition (%): 52.19 ± 0.58%
